# Results taken from patent publication US20090143279A1 (priority 2007, published 2009).
# Like-named read-outs stand apart in the source and are kept apart here.
# Assays:
# [1] = system: mtOXPHOS transcripts; format: cell-based, mouse; conditions: for mitoOX (composite Z-score): normalized score vs mock-treated (DMSO) wells
# [2] = system: cytochrome c; format: cell-based, mouse; conditions: for cyt c (composite Z-score): normalized score vs mock-treated (DMSO) wells
# [3] = system: C2C12 myotubes; conditions: for Viability (composite Z-score): normalized score vs mock-treated (DMSO) wells
# [4] = system: mitochondrial membrane potential; format: cell-based, mouse; conditions: for ΔΨm (composite Z-score): normalized score vs mock-treated (DMSO) wells
# [5] = system: OXPHOS gene expression; format: cell-based, mouse; conditions: for GE-HTS (composite Z-score): normalized score vs mock-treated (DMSO) wells
# [6] = system: reactive oxygen species; format: cell-based, mouse; conditions: for ROS (composite Z-score): normalized score vs mock-treated (DMSO) wells
# [7] = system: nuOXPHOS transcripts; format: cell-based, mouse; conditions: for nucOX (composite Z-score): normalized score vs mock-treated (DMSO) wells
# [8] = system: cellular dehydrogenase activity; conditions: for MTT (composite Z-score): normalized score vs mock-treated (DMSO) wells
# [9] = composite Z-score vs DMSO, Conc 10.24 μM
# [10] = composite Z-score vs DMSO, Conc 20 μM
# [11] = composite Z-score vs mock-treated (DMSO) wells, concentration of each compound in μM
# [12] = composite Z-score vs DMSO wells, Conc 20 μM
# [13] = normalized composite Z-score vs mock-treated (DMSO) wells, Conc 20 μM
# [14] = composite Z-score vs mock-treated (DMSO) wells, Conc 20 μM
# Sequence of cytochrome c (P62897 whole entry): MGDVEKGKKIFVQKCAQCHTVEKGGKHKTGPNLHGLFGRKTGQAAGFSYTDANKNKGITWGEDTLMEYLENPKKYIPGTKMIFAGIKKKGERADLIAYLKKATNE
compound,measurement,setting,value
C[N+]1(CCCCC[N+]2(C)CCCC2)CCCC1 [pentolinium],mitoOX,[1]; [9],0.444
same,mitoOX,[1]; [10],−1.080
same,cyt c,[2]; [9],0.387
same,cyt c,[2]; [10],−0.703
same,Viability,[3]; [9],0.213
same,Viability,[3]; [10],−0.568
same,ΔΨm,[4]; [9],−0.024
same,ΔΨm,[4]; [10],0.209
same,GE-HTS,[5]; [9],0.521
same,GE-HTS,[5]; [10],−1.000
same,ROS,[6]; [9],3.608
same,ROS,[6]; [10],0.392
same,nucOX,[7]; [9],0.489
same,nucOX,[7]; [10],−0.840
same,MTT,[8]; [9],0.254
same,MTT,[8]; [10],−0.771
beta-sitosterol,mitoOX,[1]; [10],0.218
same,cyt c,[2]; [10],0.061
same,Viability,[3]; [10],−0.768
same,ΔΨm,[4]; [10],−0.679
same,GE-HTS,[5]; [10],0.098
same,ROS,[6]; [10],0.049
same,nucOX,[7]; [10],0.046
same,MTT,[8]; [10],−1.974
CC(C)c1c(O)ccc2c1CCC1C(C)(C(=O)O)CCCC21C (centres unmarked) [totarol-19-carboxylic acid],mitoOX,[1]; [11],−0.073
same,cyt c,[2]; [11],−1.116
same,Viability,[3]; [11],−0.506
same,ΔΨm,[4]; [11],−0.008
same,GE-HTS,[5]; [11],−0.399
same,ROS,[6]; [11],−0.209
same,nucOX,[7]; [11],−0.494
same,MTT,[8]; [11],−1.701
COc1cc(OC)c2c(c1)OC(c1ccccc1)CC2=O (centres unmarked) [alpinetin methyl ether],mitoOX (composite Z-score),[1]; Conc 20 μM,−0.717
same,cyt c (composite Z-score),[2]; Conc 20 μM,−0.145
same,Viability (composite Z-score),[3]; Conc 20 μM,0.220
same,ΔΨm (composite Z-score),[4]; Conc 20 μM,−0.286
same,GE-HTS (composite Z-score),[5]; Conc 20 μM,−0.565
same,ROS (composite Z-score),[6]; Conc 20 μM,0.827
same,nucOX (composite Z-score),[7]; Conc 20 μM,−0.437
same,MTT (composite Z-score),[8]; Conc 20 μM,−0.694
"C[C@]12CC[C@H](O)C[C@@H]1CC[C@@H]1[C@@H]2CC[C@]2(C)[C@@H](O)CC[C@@H]12 [5alpha-androstan-3beta,17beta-diol]",mitoOX,[1]; [10],0.270
same,cyt c,[2]; [10],0.280
same,Viability,[3]; [10],−0.204
same,ΔΨm,[4]; [10],−1.116
same,GE-HTS,[5]; [10],0.123
same,ROS,[6]; [10],0.607
same,nucOX,[7]; [10],0.059
same,MTT,[8]; [10],−0.454
CCn1cc(C(=O)O)c(=O)c2cnc(N3CCNCC3)nc21 [pipemidic acid],mitoOX,[1]; [12],−0.333
same,cyt c,[2],0.101
same,cyt c,[2]; [12],0.140
same,Viability,[3]; [12],−0.716
same,ΔΨm,[4]; [12],−0.736
same,GE-HTS,[5]; [12],0.045
same,ROS,[6]; [12],0.010
same,nucOX,[7]; [12],0.264
same,MTT,[8]; [12],−0.367
C[C@@H]1CC[C@@]2(OC1)O[C@H]1C[C@H]3[C@@H]4CC=C5C[C@@H](O)CC[C@]5(C)[C@H]4CC[C@]3(C)[C@H]1[C@@H]2C [diosgenin],mitoOX,[1]; [10],0.146
same,cyt c,[2]; [10],−0.679
same,Viability,[3]; [10],−0.044
same,ΔΨm,[4]; [10],−0.353
same,GE-HTS,[5]; [10],−0.245
same,ROS,[6]; [10],0.048
same,nucOX,[7]; [10],−0.445
same,MTT,[8]; [10],−1.597
CC1=CC2C(C(C)C)CCC(C)(O)C2CC1 (centres unmarked) [cadin-4-en-10-ol],mitoOX,[1]; [13],−1.252
same,cyt c,[2]; [13],0.328
same,Viability,[3]; [13],−0.101
same,ΔΨm,[4]; [13],−0.297
same,GE-HTS,[5]; [13],−0.610
same,ROS,[6]; [13],0.180
same,nucOX,[7]; [13],−0.244
same,MTT,[8]; [13],−0.041
COc1cc(O)ccc1C(C)=O [isopeonol],mitoOX,[1]; [10],−0.635
same,cyt c,[2]; [10],0.734
same,Viability,[3]; [10],−1.180
same,ΔΨm,[4]; [10],0.271
same,GE-HTS,[5]; [10],−0.109
same,ROS,[6]; [10],−0.219
same,nucOX,[7]; [10],0.134
same,MTT,[8]; [10],−0.831
C=C/C(C)=C\CC1C(C)(O)CCC2C(C)(C)CCCC21C (centres unmarked) [abienol],mitoOX,[1]; [13],1.214
same,cyt c,[2]; [13],0.211
same,Viability,[3]; [13],−0.199
same,ΔΨm,[4]; [13],0.334
same,GE-HTS,[5]; [13],0.498
same,ROS,[6]; [13],2.467
same,nucOX,[7]; [13],0.091
same,MTT,[8]; [13],0.338
C=CC1=C(C)/C(=C/c2[nH]c(Cc3[nH]c(/C=C4\NC(=O)C(C)=C4C=C)c(C)c3CCC(=O)O)c(CCC(=O)O)c2C)NC1=O [bilirubin],mitoOX (composite Z-score),[1]; Conc 20 μM,0.427
same,cyt c (composite Z-score),[2]; Conc 20 μM,1.004
same,Viability (composite Z-score),[3]; Conc 20 μM,−0.649
same,ΔΨm (composite Z-score),[4]; Conc 20 μM,−1.837
same,GE-HTS (composite Z-score),[5]; Conc 20 μM,0.312
same,ROS (composite Z-score),[6]; Conc 20 μM,0.249
same,nucOX (composite Z-score),[7]; Conc 20 μM,0.250
same,MTT (composite Z-score),[8]; Conc 20 μM,−1.287
C=C1C[C@]23C[C@@]1(O)CC[C@H]2[C@@]12C=C[C@H](O)[C@@](C)(C(=O)O1)[C@H]2[C@@H]3C(=O)O [gibberellic acid],mitoOX,[1],−0.090
same,mitoOX,[1]; [14],−0.264
same,cyt c,[2],0.714
same,cyt c,[2]; [14],0.031
same,Viability,[3],−0.171
same,Viability,[3]; [14],−0.081
same,ΔΨm,[4],2.622
same,ΔΨm,[4]; [14],−0.439
same,GE-HTS,[5],0.021
same,GE-HTS,[5]; [14],−0.014
same,ROS,[6],0.246
same,ROS,[6]; [14],0.512
same,nucOX,[7],0.066
same,nucOX,[7]; [14],0.077
same,MTT,[8],−0.432
same,MTT,[8]; [14],0.661
